Reference: patent US20210388031A1, “Designer Peptide Opsonins” (New Jersey Institute of Technology, priority 2020, published 2021)
Like-named read-outs stand apart in the source and are kept apart here.

Assays:
[1] = Solubility of nanofibers in aqueous phosphate buffer; assay type: physicochemical
Description: (i) SAPs are customizable solid phase peptide synthesized peptides. They are based on the canonical sequence K-(SL)6-K [SEQ.1] which aggregates via β-sheet interactions of the (SL) midblock to form fibers with polar lysine termini.^47,51 These 10-15 nm wide, 1-2 nm tall, 100s nm-μm long nanofibers are highly soluble >40 mg/mL (4w %) in aqueous phosphate buffer, FIG. 2 A-D.^57,58,60
Formed are fibers with polar glutamic acid termini. These ˜10 nm wide×1-2 nm tall, 100s nm-μm long nanofibers are highly soluble >40 mg/mL (4w %) in aqueous phosphate buffer, FIG. 3. […] Given straightforward SPPS synthesis with excellent (>90% crude purity), scalable manufacture (worldwide) of this peptide is assured.

Anti-drug antibodies = conditions: in vivo
[2] = rats IV
A549 cell = A549 cell cytocompatibility; conditions: data not shown
[3] = 37° C., LC/MS, FIG. 6D

CC(=O)N[C@@H](CCCCN)C(=O)N[C@@H](CO)C(=O)N[C@@H](CC(C)C)C(=O)N[C@@H](CO)C(=O)N[C@@H](CC(C)C)C(=O)N[C@@H](CO)C(=O)N[C@@H](CC(C)C)C(=O)N[C@@H](CO)C(=O)N[C@@H](CC(C)C)C(=O)N[C@@H](CO)C(=O)N[C@@H](CC(C)C)C(=O)N[C@@H](CO)C(=O)N[C@@H](CC(C)C)C(=O)N[C@@H](CCCCN)C(N)=O [K-(SL)6-K]
solubility [1]: > 40 mg/mL

Ac-ESLSLSLSLSLSLEGQYKTYIDKNNHYAEDERYK-NH2 (N-terminus and C-terminus assumed) [ESBP3]
anti-drug antibodies (ADA) (Anti-drug antibodies): none seen to date
safety profile (daily >1 mM @ 1% blood volume (~200 μL) in rats IV): excellent safety profile
IC50 improved compared to SBP3 alone (SARS-CoV-2): orders of magnitude improved
clearance [2]: 4 to 6 h

Ac-ESLSLSLSLSLSLEGSALEEGQLKTFLDKFMHELEDLLYQLAL-NH2 (N-terminus and C-terminus assumed) [ESBP2]
A549 cell cytocompatibility (A549 cell): excellent
adverse reaction, 10 day repeat dosing (rats, 1% blood volume of 1 mM peptides, FIG. 6B): no adverse reaction
IC50 (SARS-CoV-2): < 10 nM
Plaque Reduction (10 μM, n-4) (SARS-CoV-2): 74%
stability of drug formulation [3]: over 10 days
IV clearance ([2]; FIG. 6C): approximately 4 hrs

QYKTYIDKNNHYAEDERYK [SBP3]
IC50 (SARS-CoV-2; binding domain alone, binds to the Spike protein): μM-nM

SALEEQLKTFLDKFMHELEDLLYQLAL [SBP2]
Plaque Reduction (10 μM, n-4) (SARS-CoV-2): 88%
